These results are taken from patent US8580746B2, “Amide linkage cyclic natriuretic peptide constructs” (Palatin Technologies, Inc., priority 2006, dated 2013).

Data set [1] has as its target T1, human natriuratic peptide receptor A (NPRA) (Homo sapiens, UniProt P16066).
T1 sequence (P16066 33-1061): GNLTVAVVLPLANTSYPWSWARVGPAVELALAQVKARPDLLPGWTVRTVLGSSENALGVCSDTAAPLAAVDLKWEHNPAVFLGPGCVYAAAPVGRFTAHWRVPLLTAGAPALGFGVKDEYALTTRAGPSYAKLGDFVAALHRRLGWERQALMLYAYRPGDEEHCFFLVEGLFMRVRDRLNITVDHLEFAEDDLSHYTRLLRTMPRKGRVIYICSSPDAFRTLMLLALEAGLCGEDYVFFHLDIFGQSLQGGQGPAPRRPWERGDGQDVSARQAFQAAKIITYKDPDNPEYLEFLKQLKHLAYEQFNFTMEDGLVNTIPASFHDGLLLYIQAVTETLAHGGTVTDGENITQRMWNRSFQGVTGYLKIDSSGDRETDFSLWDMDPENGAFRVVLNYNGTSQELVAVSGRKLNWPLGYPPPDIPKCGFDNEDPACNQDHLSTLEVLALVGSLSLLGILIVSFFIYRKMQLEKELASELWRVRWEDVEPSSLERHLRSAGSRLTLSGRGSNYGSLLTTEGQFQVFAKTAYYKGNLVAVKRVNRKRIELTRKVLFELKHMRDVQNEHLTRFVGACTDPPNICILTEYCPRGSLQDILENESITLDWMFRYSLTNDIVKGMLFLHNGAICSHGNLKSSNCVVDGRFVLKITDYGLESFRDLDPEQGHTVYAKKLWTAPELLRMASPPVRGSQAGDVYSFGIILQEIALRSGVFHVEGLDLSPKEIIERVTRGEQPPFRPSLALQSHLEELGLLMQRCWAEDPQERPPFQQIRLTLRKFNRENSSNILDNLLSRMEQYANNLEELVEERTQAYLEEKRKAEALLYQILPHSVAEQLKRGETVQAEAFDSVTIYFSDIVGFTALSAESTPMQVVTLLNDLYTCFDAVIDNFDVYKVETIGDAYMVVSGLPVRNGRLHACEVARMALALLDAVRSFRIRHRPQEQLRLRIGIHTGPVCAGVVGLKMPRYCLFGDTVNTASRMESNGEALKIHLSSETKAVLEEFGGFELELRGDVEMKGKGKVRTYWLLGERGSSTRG
Briefly: Competitive inhibition binding assay, [125I]-ANP, membrane homogenates from HEK-hNPRA cells. To be noted: for Percent Inhibition: inhibition of [125I]-ANP binding to HEK-hNPRA membranes, construct concentration not stated. The source says: (§1) A cDNA clone that encodes for human natriuratic peptide receptor A (NPRA) was purchased from Bio S&T Inc. (Montreal, Quebec). The cDNA clone was inserted into the mammalian expression vector pcDNA3.1 (Invitrogen) and transfected into HEK-293 cells. Stable clones were selected by culture of cells in the presence of G418 sulfate. Expression of NPRA was examined by binding of [^125I]-atrial natriuretic peptide ([^125I]-ANP) to membrane homogenates prepared from clonal cell lines. HEK-hNPRA cells were maintained in culture at 37° C. in 5% CO2 in Dulbecco's Modified Eagle's Medium (DMEM) supplemented with 10% FBS, G418 sulfate (300 μg/mL) sodium glutamate (0.29 mg/mL), penicillin (100 units/mL) and streptomycin (100 ug/mL).
A competitive inhibition binding assay was performed using crude membrane homogenates prepared from HEK-hNPRA cells. To prepare membrane homogenates, cells were rinsed with phosphate-buffered saline and incubated for 15 minutes at 4° C. in hypotonic lysis buffer (10 mM Tris, pH 7.4+5 mM EDTA). Cells were transferred from plates to polypropylene tubes and homogenized. Homogenates were centrifuged at 25,000×g for 20 minutes. Pellets were resuspended in buffer consisting of 50 mM Tris (pH 7.4) and 1 mM EDTA, homogenized and centrifuged at 25,000×g for 20 minutes. Pellets were resuspended in buffer consisting of 100 mM Tris (pH 7.4) and 10 mM MgCl2 and stored at −80° C. until needed. On the day of an assay, homogenates were thawed and homogenized. Binding of [^125I]-ANP was carried out in buffer containing 25 mM Hepes (pH 7.4), 100 mM NaCl, 2 mM CaCl2, 5 mM MgCl2, 0.1% BSA and 1 mM 1,10-phenanthroline. Homogenates (1-10 μg protein/well) were incubated with [^125I]-ANP (25-30 pM) and increasing concentrations of competing ligands in Millipore filter plates for 120 minutes at 4° C. Assays were stopped by addition of cold wash buffer (phosphate-buffered saline) followed by filtration using a vacuum manifold. Bound radioactivity was determined using a gamma counter. Non-specific binding was defined by binding of [I^125]-hANP to non-transfected HEK293 membranes. Data were analyzed using GraphPad Prism® curve-fitting software.

The target of data set [2] is T2, hNPR-A (Homo sapiens, UniProt P16066).
T2 sequence (P16066 33-1061): T1 sequence (P16066 33-1061)
The data set is described as follows: Accumulation of intracellular cGMP in HEK-293 cells that express recombinant hNPR-A. It counts as cell-based. To be noted: HEK-hNPRA cells.
Source text: as §1
Functional evaluation of constructs was performed by measuring the accumulation of intracellular cGMP in HEK-293 cells that express recombinant hNPR-A. HEK-NPRA cells were harvested by washing and centrifugation in Cell Dissociation Buffer (Gibco, Life Technologies). Pelleted cells were resuspended in Hank's Balanced Salt Solution (HBSS) containing 10 mM Hepes (pH 7.4), 5 mM MgCl2, […], 1 mM 1,10-phenanthroline and BSA (0.5 mg/mL). Following centrifugation, cells were resuspended in the above buffer supplemented with 0.5 mM 3-isobutyl-1-methylxanthine (IBMX). Cells (˜2×10^5/well) were added to each well of a 96-well plate and incubated for 15 minutes at 37° C. Following the pre-incubation period, cells were incubated for an additional 15 minutes in the presence of increasing concentrations of constructs. The reaction was terminated by lysis of the cells with temperature shock. The reaction plate was incubated in a dry ice/ethanol bath for 15 minutes followed by incubation at 90° C. for 10 minutes. Accumulation of cGMP was measured using the cGMP Flashplate RIA (Perkin-Elmer). Data analysis and EC50 values were determined by using nonlinear regression analysis with GraphPad Prism® software.

The nature of data set [3]: Resistance to degradation by human neutral endopeptidase. The data set is classed as in vitro ADME. As to conditions: isolated enzyme neprilysin; 50 μM concentration of human neutral endopeptidase; two hours; read-out: percent of construct remained after incubation for two hours. How it is done:
(§2) In other tests, resistance to degradation by a 50 μM concentration of human neutral endopeptidase was determined for selected constructs.

Data set [4] concerns neutral endopeptidase. Described as above. The data set is classed as in vitro ADME. To be noted: human neutral endopeptidase (isolated enzyme); 50 μM concentration of human neutral endopeptidase; two hours; read-out: percent of construct remained after incubation for two hours. How it is done:
as §2

Numbered stars: 1 amine (or outer) side, 2 acyl side, 3 side chain; on linkers, the order of the positions; unused ones are H or OH. Bridge positions count the residues as written; N and C are the ends. Square brackets hold non-standard residues; d marks the D form. Peptide text beside a SMILES is read from it. * marks the point of attachment. X1 = N=C(N)NCCC[C@H]1C(=O)N[C@@H](C(N)=O)CN1*; Glutaryl = O=C(CCCC(=O)[*:2])[*:1]; Suc = O=C(CCC(=O)[*:2])[*:1]; dNle = CCCC[C@@H](N)C(=O)O; Heptanoyl = CCCCCCC(=O)*; Nle = CCCC[C@H](N)C(=O)O; Orn = NCCC[C@H](N)C(=O)O; Dab = NCC[C@H](N)C(=O)O; Dap = NC[C@H](N)C(=O)O

`CCCCCCC(=O)N[C@H]1CC(=O)NCC[C@@H](C(=O)N[C@@H](Cc2ccc(O)cc2)C(=O)N2C[C@H](C(N)=O)NC(=O)[C@@H]2CCCNC(=N)N)NC(=O)[C@H](CO)NC(=O)[C@H]([C@@H](C)CC)NC(=O)[C@H](CCCNC(=N)N)NC(=O)[C@H](CC(=O)O)NC(=O)[C@@H](CCCC)NC(=O)[C@H](CCCNC(=N)N)NC(=O)CNC(=O)[C@@H](C)NC(=O)[C@H](Cc2ccccc2)NC(=O)[C@H](Cc2c[nH]cn2)NC1=O` [4-138] (Heptanoyl-DHF[dA]GR[dNle]DRIS[Dab]Y-X1; lactam 1-12): the “Percent Inhibition” value in data set [1] came to 100%. For the same compound, the concentration giving a half-maximal response (EC50) (as a rule, the concentration giving half of the maximal effect) in data set [2] was determined as 4 nM. The remaining at 2 h in data set [3] was 89%.

As to `CCCCCCC(=O)NCC[C@@H]1NC(=O)CC[C@@H](C(=O)N[C@@H](Cc2ccc(O)cc2)C(=O)N2C[C@H](C(N)=O)NC(=O)[C@@H]2CCCNC(=N)N)NC(=O)[C@H](CO)NC(=O)[C@H]([C@@H](C)CC)NC(=O)[C@H](CCCNC(=N)N)NC(=O)[C@H](CC(=O)O)NC(=O)[C@@H](CCCC)NC(=O)[C@H](CCCNC(=N)N)NC(=O)CNC(=O)[C@@H](C)NC(=O)[C@H](Cc2ccccc2)NC(=O)[C@H](Cc2c[nH]cn2)NC1=O` [3-75] ([Dab](Heptanoyl)HF[dA]GR[dNle]DRISEY-X1; lactam N-12), in data set [1], the “Percent Inhibition” value was 98%. In data set [2], the EC50 came out at 5 nM. For the same compound, in data set [3], the remaining at 2 h came out at 97%.

On to `CCCC[C@H]1NC(=O)[C@H](CCCNC(=N)N)NC(=O)CNC(=O)[C@@H](C)NC(=O)[C@H](Cc2ccccc2)NC(=O)[C@H](Cc2c[nH]cn2)NC(=O)[C@@H](NC(=O)[C@@H](C)N)CCC(=O)NCC[C@@H](C(=O)N[C@@H](Cc2ccc(O)cc2)C(=O)N2C[C@H](C(N)=O)NC(=O)[C@@H]2CCCNC(=N)N)NC(=O)[C@H](CO)NC(=O)[C@H]([C@@H](C)CC)NC(=O)[C@H](CCCNC(=N)N)NC(=O)[C@H](CC(=O)O)NC1=O` [4-90] (H-[dA]EHF[dA]GR[dNle]DRIS[Dab]Y-X1; lactam 2-13), for which the inhibition constant (Ki) (as a rule, a dissociation constant, usually derived from enzyme kinetics or from competition with a known ligand) in data set [1] ([125I]-ANP competition, HEK-hNPRA membranes) was 40 nM. Also, the EC50 in data set [2] is 11 nM. Besides, the remaining at 2 h in data set [3] worked out at 95%.

Consider `CCCCCCC(=O)N[C@H]1CC(=O)NCC[C@@H](C(=O)N[C@@H](Cc2ccc(O)cc2)C(=O)N2C[C@H](C(N)=O)NC(=O)[C@@H]2CCCNC(=N)N)NC(=O)[C@H](CO)NC(=O)[C@H]([C@@H](C)CC)NC(=O)[C@H](CCCNC(=N)N)NC(=O)[C@H](CC(=O)O)NC(=O)[C@H](CCCC)NC(=O)[C@H](CCCNC(=N)N)NC(=O)CNC(=O)CNC(=O)[C@H](Cc2ccccc2)NC(=O)[C@H](Cc2c[nH]cn2)NC1=O` [4-137] (Heptanoyl-DHFGGR[Nle]DRIS[Dab]Y-X1; lactam 1-12), for which the “Percent Inhibition” value in data set [1] is 78%. Also, in data set [2], the concentration for a half-maximal effect (EC50) is 0.25 nM.

As to `CCCCCCC(=O)NC[C@@H]1NC(=O)CC[C@@H](C(=O)N[C@@H](Cc2ccc(O)cc2)C(=O)N2C[C@H](C(N)=O)NC(=O)[C@@H]2CCCNC(=N)N)NC(=O)[C@H](CO)NC(=O)[C@H]([C@@H](C)CC)NC(=O)[C@H](CCCNC(=N)N)NC(=O)[C@H](CC(=O)O)NC(=O)[C@@H](CCCC)NC(=O)[C@H](CCCNC(=N)N)NC(=O)CNC(=O)[C@@H](C)NC(=O)[C@H](Cc2ccccc2)NC(=O)[C@H](Cc2c[nH]cn2)NC1=O` [3-76] ([Dap](Heptanoyl)HF[dA]GR[dNle]DRISEY-X1; lactam N-12), the “Percent Inhibition” value in data set [1] is 93%. Also, the 50% effective concentration (EC50) in data set [2] was 10 nM. Moreover, the remaining at 2 h in data set [4] turned out to be 84%.

Turning to `CCCCCCC(=O)N[C@H]1CNC(=O)CCC(=O)NC[C@@H](C(=O)N[C@@H](Cc2ccc(O)cc2)C(=O)N2C[C@H](C(N)=O)NC(=O)[C@@H]2CCCNC(=N)N)NC(=O)[C@H](CO)NC(=O)[C@H]([C@@H](C)CC)NC(=O)[C@H](CCCNC(=N)N)NC(=O)[C@H](CC(=O)O)NC(=O)[C@H](CCCC)NC(=O)[C@H](CCCNC(=N)N)NC(=O)CNC(=O)[C@@H](C)NC(=O)[C@H](Cc2ccccc2)NC(=O)[C@@H](Cc2c[nH]cn2)NC1=O` [1-37] (Heptanoyl-[Dap][dH]F[dA]GR[Nle]DRIS[Dap]Y-X1; linker 1-12 via Suc), in data set [1], the “Percent Inhibition” value was 100%. Besides, the EC50 in data set [2] stood at 0.7 nM.

As for `CCCC[C@@H]1NC(=O)[C@H](CCCNC(=N)N)NC(=O)CNC(=O)CNC(=O)[C@H](Cc2ccccc2)NC(=O)[C@H](Cc2c[nH]cn2)NC(=O)[C@@H](N)CC(=O)NCC[C@@H](C(=O)N[C@@H](Cc2ccc(O)cc2)C(=O)N2C[C@H](C(N)=O)NC(=O)[C@@H]2CCCNC(=N)N)NC(=O)[C@H](CO)NC(=O)[C@H]([C@@H](C)CC)NC(=O)[C@H](CCCNC(=N)N)NC(=O)[C@H](CC(=O)O)NC1=O` [4-143] (H-DHFGGR[Nle]DRIS[Dab]Y-X1; lactam 1-12), the “Percent Inhibition” value in data set [1] is on record as 69%. The half-maximal effective concentration (EC50) in data set [2] was 0.2 nM.

In the case of `CCCCCCC(=O)N[C@H]1CNC(=O)CCCC(=O)NCCC[C@@H](C(=O)N[C@@H](Cc2ccc(O)cc2)C(=O)N2C[C@H](C(N)=O)NC(=O)[C@@H]2CCCNC(=N)N)NC(=O)[C@H](CO)NC(=O)[C@H]([C@@H](C)CC)NC(=O)[C@H](CCCNC(=N)N)NC(=O)[C@H](CC(=O)O)NC(=O)[C@H](CCCC)NC(=O)[C@H](CCCNC(=N)N)NC(=O)CNC(=O)[C@@H](C)NC(=O)[C@H](Cc2ccccc2)NC(=O)[C@@H](Cc2c[nH]cn2)NC1=O` [1-31] (Heptanoyl-[Dap][dH]F[dA]GR[Nle]DRIS[Orn]Y-X1; linker 1-12 via Glutaryl), in data set [1], the “Percent Inhibition” value is 68%. Further, the EC50 in data set [2] turned out to be 10 nM.
